The values below come from BindingDB's records for patent US20250091994 (Kobe University, 2025).

Molecules are shown by their SMILES.

As usually defined, the IC50 is the concentration at which inhibition is half-maximal. High values mean weaker potency, low ones greater potency.

Sequence of GTPase HRas [G12V] (P01112 whole entry G12V, looked up): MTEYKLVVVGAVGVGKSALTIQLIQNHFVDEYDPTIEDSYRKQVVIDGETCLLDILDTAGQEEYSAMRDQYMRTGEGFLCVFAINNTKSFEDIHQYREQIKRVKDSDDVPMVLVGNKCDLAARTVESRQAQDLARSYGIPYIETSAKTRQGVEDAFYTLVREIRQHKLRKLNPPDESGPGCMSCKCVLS

The test has as its target GTPase HRas [G12V] (Homo sapiens, UniProt P01112, G12V). Briefly: In Vitro Ras-Raf Binding Inhibitory Activity Assay. On the procedure:
The in vitro Ras-Raf binding inhibitory activity of the compound of the present invention was evaluated by an ELISA method described below. GST-c-Raf-1 RBD diluted with a Ras-Raf binding buffer (50 mM Tris-HCl pH7.4, 150 mM NaCl, 5 mM MgCl2, 1 mM EDTA, and 1% Triton-X100) was added to each well of a glutathione-coated 96-well plate (Thermo Fisher Scientific.), and was incubated at 30° C. for 1 hour, to immobilize Raf on the well. The unbound free Raf was eliminated by washing the well with the Ras-Raf binding buffer three times. Subsequently, GTPTS-bound HRasG12V diluted with the Ras-Raf binding buffer and each compound solution (final DMSO concentration: 10%) were applied to each well, and the resulting mixture was then incubated at 30° C. for 1 hour, so that Ras and Raf were allowed to bind to each other. Thereafter, the plate was washed with the Ras-Raf binding buffer twice, and was then subjected to a blocking treatment at room temperature for 20 minutes, using TBS-Tween {10 mM Tris-HCl pH 7.4, 150 mM NaCl, and 0.05% (w/v) Tween-20}-5% (w/v) bovine serum albumin (BSA). After that, an anti-HRas antibody (C-20, Santa Cruz) or an anti-HRas antibody (259, Santa Cruz), which had been 1000 times diluted with TBS-Tween-5% BSA, was added to the reaction mixture, and incubated at room temperature for 1 hours. After the treatment with the primary antibody, the plate was washed with TBS-Tween-5% BSA three times, and a horseradish peroxidase-labeled secondary antibody against rabbit immunoglobulin G (GE Healthcare) of 1000 times diluted with TBS-Tween-5% BSA, was added to the plate, followed by incubation at room temperature for 1 hour. After the treatment with the secondary antibody, the plate was washed with TBS-Tween-5% BSA three times, and a substrate solution (TMB) was then added to the plate, followed by incubation at room temperature for 15 minutes for coloration. Finally, 2 M H2SO4 was added to stop color development (coloration reaction kit: Nacalai Tesque).
Molecule `CC(=O)N1C(=Cc2cc(-c3ccc(-c4ccccc4)cc3)c3cc(C(=O)N4CCN(C5COC5)CC4)ccc3n2)C(=O)c2ccccc21` [US20250091994, Example 162] came in with an IC50 of 2400 nM.

`COc1cc(C=C2C(=O)c3ccccc3N2C(C)=O)ccc1OCCO` [US20250091994, Example 125] came in with an IC50 of 2800 nM.

As to `COc1cc(/C=C2/C(=O)c3ccccc3N2C(C)=O)ccc1OS(C)(=O)=O` [US20250091994, Example 21], the IC50 came to 7200 nM.

Molecule `CC(=O)N1/C(=C/c2cc(-c3cccc(-c4cn[nH]c4)c3)c3cc(C(=O)N4CCOCC4)ccc3n2)C(=O)c2ccccc21` [US20250091994, Example 148] registered a half-maximal inhibitory concentration (IC50) of 300 nM.

In turn, `CC(=O)N1C(=Cc2ccc(OCC(N)=O)c(Cl)c2)C(=O)c2ccccc21` [US20250091994, Example 17] registered an IC50 of 9600 nM. Against the preceding molecule, the IC50 is about 32-fold higher.

In turn, `CC(=O)N1/C(=C\c2cc(On3nnc4cccnc43)c3cc(C(=O)N4CCOCC4)ccc3n2)C(=O)c2ccccc21` [US20250091994, Example 112] gave an IC50 of 550 nM.

Molecule `CC(=O)Nc1cc(/C=C2/C(=O)c3ccccc3N2C(C)=O)nc2ccc(C(=O)N3CCOCC3)cc12` [US20250091994, Example 113] showed an IC50 of 680 nM.

In turn, `CC(=O)NCc1ccc2nc(/C=C3/C(=O)c4ccccc4N3C(C)=O)ccc2c1` [US20250091994, Example 63] came in with an IC50 of 2000 nM.

`COc1cc(/C=C2/C(=O)c3ccccc3N2C(C)=O)ccc1NC(=O)CN1CCOCC1` [US20250091994, Example 27]: the 50% inhibitory concentration (IC50) came out at 2700 nM. The IC50 values of the last two molecules are within 1.5-fold of each other.

`CC(=O)N1/C(=C/c2ncc(C(=O)N3CCOCC3)s2)C(=O)c2ccccc21` [US20250091994, Example 68] came in with an IC50 of 2300 nM.
